These are literature values, as cited in US20120316171A1, “Tryptophan Hydroxylase Inhibitors for the Treatment of Cancer” (priority 2009, published 2012).

Each structure is given as a SMILES string.

In data set [1] the test system is cholangiocarcinoma tumors. Conditions: xenograft model of cholangiocarcinoma tumors; Alpini et al. 2008.
The conditions of data set [2]: in vivo.

Regarding `N[C@@H](Cc1ccc(Cl)cc1)C(=O)O` (racemic) [pCPA, para-chlorophenylalanine], the tumor growth result in data set [1] was “suppressed tumor growth”. Besides, in data set [2], the blood-brain barrier passage entry was “crosses the blood-brain barrier”. In addition, in the data set on carcinoid patients, the “adverse effects of administration” value is on record as “unwanted psychological effects”. The “effect on symptoms of carcinoid syndrome (flushing, diarrhea, valvular damage)” value in the data set on carcinoid patients (reported in the 1960's) is “alleviated some of those symptoms”.
